Results: ChEMBL document CHEMBL1201862, “PubChem BioAssay data set” (2004)
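48-hour exposure; five concentrations; linearly interpolated endpoints. GI50 = concentration required for 50% inhibition of growth.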 Active and inactive are the calls of the source. Cut-off read from the data, not from the text of the source: active = GI50 up to about 1.1 µM and inactive = higher.

Tests used:
Test in all cases: NCI-60 cell line screen, 48 h
[1] = tested on: A549
[2] = tested on: SK-OV-3
[3] = tested on: NCI/ADR-RES
[4] = tested on: KM-20L2
[5] = tested on: MCF7
[6] = tested on: OVCAR-8
[7] = tested on: DMS-114
[8] = tested on: LOX IMVI
[9] = tested on: HOP-92
[10] = tested on: SW-620
[11] = tested on: Malme-3M
[12] = tested on: HCT-15
[13] = tested on: CAKI-1
[14] = tested on: DLD-1
[15] = tested on: UACC-257
[16] = tested on: MOLT-4
[17] = tested on: U-251
[18] = tested on: IGROV-1
[19] = tested on: OVCAR-4
[20] = tested on: M19-MEL
[21] = tested on: NCI-H23
[22] = tested on: KM12
[23] = tested on: UO-31
[24] = tested on: SK-MEL-5
[25] = tested on: SNB-19
[26] = tested on: SNB-75
[27] = tested on: K562
[28] = tested on: OVCAR-3
[29] = tested on: CCRF-CEM
[30] = tested on: NCI-H226
[31] = tested on: RXF 393
[32] = tested on: HT-29
[33] = tested on: HCT-116
[34] = tested on: RPMI-8226
[35] = tested on: A498
[36] = tested on: EKVX
[37] = tested on: DMS-273
[38] = tested on: SF-268
[39] = tested on: NCI-H460
[40] = tested on: COLO 205
[41] = tested on: UACC-62
[42] = tested on: SF-539
[43] = tested on: SK-MEL-28
[44] = tested on: HOP-62
[45] = tested on: HL-60
[46] = tested on: HOP-18
[47] = tested on: SK-MEL-2
[48] = tested on: SF-295
[49] = tested on: NCI-H522
[50] = tested on: SN12C
[51] = tested on: OVCAR-5
[52] = tested on: HCC 2998

Compound: O=C(O)C(Cc1cccs1)NC(=O)C(F)(F)F (configuration not stated)
- GI50 [1]: > 100 µM (inactive)
- GI50 [2]: > 100 µM (inactive)
- GI50 [3]: > 100 µM (inactive)
- GI50 [4]: > 100 µM (inactive)
- GI50 [5]: > 100 µM (inactive)
- GI50 [6]: > 100 µM (inactive)
- GI50 [7]: > 100 µM (inactive)
- GI50 [8]: > 100 µM (inactive)
- GI50 [9]: > 100 µM (inactive)
- GI50 [10]: > 100 µM (inactive)
- GI50 [11]: > 100 µM (inactive)
- GI50 [12]: > 100 µM
- GI50 [13]: > 100 µM (inactive)
- GI50 [14]: > 100 µM (inactive)
- GI50 [15]: > 100 µM (inactive)
- GI50 [16]: > 100 µM (inactive)
- GI50 [17]: > 100 µM (inactive)
- GI50 [18]: > 100 µM (inactive)
- GI50 [19]: > 100 µM (inactive)
- GI50 [20]: > 100 µM (inactive)
- GI50 [21]: > 100 µM (inactive)
- GI50 [22]: > 100 µM (inactive)
- GI50 [23]: > 100 µM (inactive)
- GI50 [24]: > 100 µM (inactive)
- GI50 [25]: > 100 µM (inactive)
- GI50 [26]: > 100 µM (inactive)
- GI50 [27]: > 100 µM (inactive)
- GI50 [28]: > 100 µM (inactive)
- GI50 [29]: > 100 µM (inactive)
- GI50 [30]: > 100 µM (inactive)
- GI50 [31]: > 100 µM (inactive)
- GI50 [32]: > 100 µM (inactive)
- GI50 [33]: > 100 µM (inactive)
- GI50 [34]: > 100 µM (inactive)
- GI50 [35]: > 100 µM (inactive)
- GI50 [36]: > 100 µM (inactive)
- GI50 [37]: > 100 µM (inactive)
- GI50 [38]: > 100 µM (inactive)
- GI50 [39]: > 100 µM (inactive)
- GI50 [40]: > 100 µM (inactive)
- GI50 [41]: > 100 µM (inactive)
- GI50 [42]: > 100 µM (inactive)
- GI50 [43]: > 100 µM (inactive)
- GI50 [44]: > 100 µM (inactive)
- GI50 [45]: > 100 µM (inactive)
- GI50 [46]: > 100 µM (inactive)
- GI50 [47]: > 100 µM (inactive)
- GI50 [48]: > 100 µM (inactive)
- GI50 [49]: > 100 µM (inactive)
- GI50 [50]: > 100 µM (inactive)
- GI50 [51]: > 100 µM (inactive)
- GI50 [52]: > 100 µM (inactive)
